# From patent US9574176B2 (priority 2012, dated 2017)
# Legend:
# [1] = test system: nerve cells differentiated from NVDCC-deficient mouse hippocampus-derived neural stem cells; type: cell-based
# [2] = test system: NVDCC-deficient mouse-derived neural stem cells; type: cell-based
# [3] = test system: nicotinic receptor
# [4] = test system: muscarinic receptor; type: cell-based, mouse
compound,measurement,setting,value
"Nc1ccncc1 [4-AP, 4-aminopyridine]",activity potential of the differentiated neurons (spike frequency),[1],significantly increased
tetradotoxin [TTX],activity potential of the differentiated neurons (spike frequency),[1],suppressed
"CC1=C(/C=C/C(C)=C/C=C/C(C)=C/C(=O)O)C(C)(C)CCC1 [ATRA, all-trans retinoic acid]",differentiation on induction,[2],most cells differentiated into MAP2 (microtubule-associated protein 2)-positive nerve cells
CN1CCCC1c1cccnc1 (centres unmarked) [nicotine],reaction of differentiated neurons (calcium fluorescence),[3],reacted
C[C@@H]1O[C@H](C[N+](C)(C)C)C[C@H]1O [muscarine],reaction of differentiated neurons (calcium fluorescence),[4],reacted
